Assay results reported in patent US10174065B2, “Antidiabetic enolic glucoside of phenylpyruvic acid” (ZADEC APS, priority 2010, dated 2019).

Tested on: 3T3-L1 adipocytes
Experiment: Glucose uptake in transformed 3T3-L1 adipocytes (colourometric glucose oxidase method)
Type: cell-based
Protocol: 3T3-L1 cells were transformed in culture using modified DMEM differentiation media supplemented with insulin, dexametasone and isobutylmethylxanthine and cultured for 3 days. The transformed 3T3-L1 adipocytes were then cultured for a further 5 days in modified DMEM supplemented with 10% FCS before being exposed to insulin, metformin and compounds of the present invention (see Table 1). Glucose uptake over a three (3) hour period was determined after the 5 days of treatment using a colourometric glucose oxidase method (Biovision Inc, USA).
The glucose concentration column represents the glucose concentration remaining in the media following three (3) hour exposure to the cells. The glucose uptake column represents glucose uptake from the media after a 3 hour exposure. SD represents the standard deviation. The percentage increases calculated from the relevant solvent vehicle and the P=values are reflected in the last two columns respectively.

glucose uptake over a 3 hour culture period (3T3-L1 adipose cells): significantly increased
SMILES: O=C(O)/C(=C/c1ccccc1)O[C@@H]1O[C@H](CO)[C@@H](O)[C@H](O)[C@H]1O [RX-1, 3-Phenyl-2-(3,4,5-trihydroxy-6-hydroxymethyl-tetrahydro-pyran-2-yloxy)-acrylic acid]
Glucose conc. (glucose remaining in the media after 3 hour exposure to the cells, media containing 8 mM glucose): 3.19 nM/ul
Glucose Uptake (glucose uptake from the media after 3 hour exposure, media containing 8 mM glucose): 2.86 nM/ul
% uptake (relative to DMSO vehicle = 100.00, 3 hour glucose uptake): 122.64%
